The results in this text go back to patent US9329188B2, “Method for detecting invasive microvesicles derived from tumor cells” (University of Notre Dame, priority 2010, dated 2016).

The subject of data set [1] is cleaved caspase 3. The experiment in a line: Cleaved caspase 3 as sign of apoptosis. In kind it is cell-based. To be noted: cells treated with okadaic acid, compared with LOX cells expressing mutant ARF6.
In data set [2] the test system is parental LOX and LOXARF6-GTP cells. Put plainly: Microvesicle shedding: microvesicles released into media isolated and quantitated for protein, or surface microvesicles scored. In kind it is cell-based. Here is the method: Data from 5 independent experiments is plotted. Standard error bars are shown.
(§1) Standard error bars are shown.
Released microvesicles were isolated and quantitated for protein. The average of three independent experiments with standard error bars for each experimental condition is shown.
Parental LOX and LOXARF6-GTP were treated with 10 μM ML-7 for 2 hrs. Microvesicles released were isolated, quantitated for protein, and the data is shown as fold change in shedding relative to untreated LOX cells.
The total protein content of lysed microvesicles can be calculated, for example by using the Bradford assay (BioRad). This assay utilizes a spectroscopic analysis procedure to measure the concentration of protein in a solution.

Data set [3] concerns phospho-MLC. Put plainly: Phospho-MLC in cell lysates by western blotting, parental LOX and LOXARF6-GTP cells. In kind it is cell-based. Here is the method: Additional lanes on the immunoblot between lanes 2 and 3 were spliced out. Band density was measured by densitometric scanning.
(§2) Cell lines as indicated were treated with ML-7, and cell lysates were probed for phospho-MLC and α-tubulin by Western blotting. Band density was measured by densitometric scanning. Fold increase in the ratio of phospho-MLC to α-tubulin in ML-7 treated cells relative to untreated cells is shown.
Lysates of parental LOX and LOXARF6-GTP treated with Go6976 […] for 2 hrs at 37° C. were probed for phospho-MLC and α-tubulin by Western blotting.
On the technique in general: In western blotting, separated proteins are transferred to a membrane and probed.

The test system of data set [4] is phospho-MLC. The experiment in a line: Phospho-MLC in cell lysates by western blotting, LOXARF6-GDP cells. It counts as cell-based. The settings on record: Go6976 10 μM, ML-7 10 μM, U0126 30 μM for 2 hrs at 37° C. Here is the method: Cell lysates were probed for phospho-MLC, phospho-ERK and α-tubulin by western blotting.
as §2

For data set [5], the system named is PC3 and SW480 cell lines. The settings on record: MEK inhibition.
Excerpt: Vesicle shedding was examined in other tumor cell lines; SW480, a colon carcinoma cell line, PC3, a prostate adenocarcinoma cell line, and MDA-MB-231, an invasive breast tumor cell line.
Data set [6] has as its system LOXARF6-GDP cells. The experiment in a line: Microvesicle shedding, cells with microvesicles at the cell surface scored. It counts as cell-based. To be noted: LOXARF6-GDP cells treated with propranolol or atenolol.
Excerpt: as §1
The treated cells were visualized, and those with microvesicles present at the cell surface were scored as described above.

Data set [7] has as its system phospho-ERK. The experiment in a line: Phospho-ERK and total-ERK in cell lysates, western blotting with densitometry. To be noted: LOXARF6-GDP cells; propranolol (0.1 mM), atenolol (10 uM). In kind it is cell-based. An excerpt: The treated cells were probed for phospho-ERK and total-ERK. Band intensities were quantified by densitometry. The average of 3 independent experiments is plotted and standard error bars are shown.

Data set [8] has as its system ERK. The settings on record: cells treated with 1-butanol. Here is the method: Studies have shown that ARF6 stimulates phospholipase D (PLD) activity (C. D'Souza-Schorey et al., Nat. Rev. Mol. Cell Biol. 7, 347-58 (2006)). […] Here, ARF6 regulated PLD activity and its involvement with ERK activation was tested. First, phospho-ERK levels upon PLD inactivation were examined. […] Next, primary alcohols were used to inhibit PLD, which results in the formation of phosphatidylalcohol at the expense of phosphatidic acid by replacing water.

For data set [9], the system named is LOX cells. To be noted: cells expressing constitutively activated MEK; 1-butanol. From the text:
Next, the role of phospho-ERK levels in microvesicle shedding was investigated. Specifically, microvesicle shedding was examined in LOXARF6-GDP cells after phospho-ERK levels were restored, or after stimulating PLD activity through pathways independent of ARF6. […] Finally, the effect of 1-butanol on microvesicle shedding induced by expression of constitutively activated MEK was investigated.

Setting [10] is: LOX cells treated with blebbistatin or latrunculin A.

Consider `C=C1[C@@H](O)[C@@H]2O[C@]3(CC[C@H](/C=C/[C@@H](C)[C@@H]4CC(C)=C[C@@]5(O[C@H](C[C@@](C)(O)C(=O)O)CC[C@H]5O)O4)O3)CC[C@H]2O[C@@H]1[C@@H](O)C[C@H](C)[C@H]1O[C@@]2(CCCCO2)CC[C@H]1C` [okadaic acid], for which the “cleaved caspase 3 in cells” value in data set [1] was “present in a higher proportion of the cells”.
In the case of `N#CC(=C(/N)Sc1ccccc1N)/C(C#N)=C(\N)Sc1ccccc1N` [U0126], the “basal as well as ARF6-GTP enhanced microvesicle shedding” value in [2] was “significant inhibition”. In addition, the phospho-MLC levels result in data set [3] (U0126 (30 μM)) was “inhibition of phospho-MLC was evident”. Further, the “phospho-MLC levels / MLC phosphorylation” value in data set [4] was “no inhibition”. In addition, the microvesicle shedding result in data set [5] was “blocked microvesicle shedding”.
Consider `Cn1c2ccccc2c2c3c(c4c5ccccc5n(CCC#N)c4c21)CNC3=O` [Go6976], for which the phospho-MLC levels entry in data set [3] (Go6976 for 2 hrs at 37° C.) was “no decrease”. For the same compound, in data set [4], the “phospho-MLC levels / MLC phosphorylation” value is recorded as “decreased”.
With `CC(C)NCC(O)COc1cccc2ccccc12` (centres unmarked) [propranolol], the “microvesicle shedding / release” value in data set [6] is given as “induced microvesicle shedding”; in [6] (listed as Propranolol), “restored vesicle shedding”. Also, in data set [7], the phospho-ERK levels entry is “restored phospho-ERK levels”.
On to `CCCCO` [1-butanol], for which the microvesicle shedding entry in data set [2] (LOX cells, 0.3% 1-butanol for 30 min, cells with eight or more surface microvesicles scored) was “inhibits”. In [8], the ERK activation result was “inhibits”. Further, the “microvesicle shedding induced by constitutively activated MEK” value in [9] is listed as “little to no effect”.
Turning to `C/C1=C/C(=O)O[C@@H]2C[C@@H](CC[C@H](C)/C=C\C=C\CC1)O[C@@](O)([C@@H]1CSC(=O)N1)C2` [latrunculin A], the microvesicle shedding entry in data set [2] (setting [10]) is on record as “profoundly affected microvesicle shedding”. Further, in data set [2] (LOX cells treated with latrunculin A), the “treated cells exhibiting clustered microvesicles at the cell surface” value is given as 85-90%. In addition, in [2] (parental LOX and LOXARF6-GTP cells, 2 μM Latrunculin A for 45 min, released microvesicles quantitated for protein), the release of microvesicles result was “inhibited”.
For `O=S(=O)(c1cccc2c(I)cccc12)N1CCCNCC1` [ML-7], the microvesicle shedding entry in data set [2] (parental LOX and LOXARF6-GTP cells, 10 μM ML-7 for 2 hrs) is given as “blocks”. In addition, in [3] (10 μM ML-7 for 2 hrs), the MLC phosphorylation entry was “blocked”. The “phospho-MLC levels / MLC phosphorylation” value in data set [4] (listed as ML7) is listed as “little to no effect”.
For `CC(C)NCC(O)COc1ccc(CC(N)=O)cc1` (centres unmarked) [atenolol], the “microvesicle shedding / release” value in data set [6] is on record as “did not have any effect”. Further, the phospho-ERK levels entry in data set [7] is given as “did not have any effect”.
For the compound `Cc1ccc2c(c1)C(=O)C1(O)CCN(c3ccccc3)C1=N2` (centres unmarked) [blebbistatin], the microvesicle formation result in [2] (LOX cells in the presence of blebbistatin) is given as “microvesicles do not form”. In addition, the microvesicle shedding entry in [2] (setting [10]) is “profoundly affected microvesicle shedding”.
